Assay [1] addresses T1, Sentrin-specific protease 1 (Homo sapiens, UniProt Q9P0U3).
T1 sequence (Q9P0U3 whole entry): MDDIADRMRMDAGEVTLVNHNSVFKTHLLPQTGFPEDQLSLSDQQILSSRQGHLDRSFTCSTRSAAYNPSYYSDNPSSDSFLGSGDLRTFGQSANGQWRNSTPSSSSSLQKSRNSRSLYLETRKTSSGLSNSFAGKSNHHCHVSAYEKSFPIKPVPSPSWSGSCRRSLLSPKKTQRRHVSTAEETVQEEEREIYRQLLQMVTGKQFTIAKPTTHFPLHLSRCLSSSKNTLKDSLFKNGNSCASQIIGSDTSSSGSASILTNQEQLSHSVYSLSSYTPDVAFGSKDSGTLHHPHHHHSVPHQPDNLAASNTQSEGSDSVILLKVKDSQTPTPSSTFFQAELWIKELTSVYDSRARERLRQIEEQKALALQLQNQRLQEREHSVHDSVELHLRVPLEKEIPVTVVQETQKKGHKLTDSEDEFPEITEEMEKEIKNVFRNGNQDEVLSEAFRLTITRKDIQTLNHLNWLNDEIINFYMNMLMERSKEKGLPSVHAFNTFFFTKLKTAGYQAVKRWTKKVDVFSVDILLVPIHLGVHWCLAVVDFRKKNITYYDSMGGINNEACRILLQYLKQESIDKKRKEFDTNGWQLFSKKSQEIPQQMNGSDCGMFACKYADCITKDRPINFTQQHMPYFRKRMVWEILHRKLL
As to the kind of experiment: Inhibition of SENP1 (unknown origin).

The target of assay [2] is T1, Sentrin-specific protease 1. As to the kind of experiment: Inhibition of human full-length recombinant SENP1.

A value given as a limit tells only on which side of the number the result lay.

As a reminder, the IC50 is the midpoint of a concentration-inhibition curve. In the case of `Cc1cc(OCC(=O)Nc2nonc2NC(=O)COc2ccc(Cl)c(C)c2)ccc1Cl`, the IC50 in assay [1] is > 30 µM.

As for `CCCCOc1ccc(-c2nonc2NC(=O)COc2ccccc2C)cc1`, the IC50 in assay [1] is > 30 µM.

As for `O=C(Cc1ccccc1)Oc1c(OC(=O)Cc2ccccc2)c(-c2ccc(O)cc2)c(O)c(O)c1-c1ccc(O)cc1` [VIALININ A], the IC50 in assay [2] was 1.6 µM.

Source of the values: ChEMBL document CHEMBL5226359, “Recent research and development of inhibitors targeting sentrin-specific protease 1 for the treatment of cancers” (Eur J Med Chem, 2022).
